One experiment has as its system C2C12 myotubes. Briefly: LC, TNF-α and 1,25(OH)2VD treatment of myotubes (GCLC-KD, PGC-1α KD). The format is cell-based, mouse. The protocol: (§1) Cell culture and treatment: FL83B mouse hepatocytes (ATCC®, Manassas, Va.) were cultured and maintained in F-12K complete medium. Mouse C2C12 myoblasts were cultured at 37° C. in an atmosphere of 5% CO2 in growth medium (GM) consisting of Dulbecco's modified Eagle's medium (DMEM) supplemented with heat-inactivated 10% fetal bovine serum and antibiotics (penicillin and streptomycin). […] The control siRNA, a scrambled nonspecific RNA duplex that shares no sequence homology with any of the genes, was used as a negative control.
(§2) Cells were transiently transfected with 0-100 nM siRNA complex using Lipofectamine™2000 transfection reagent (Invitrogen, Carlsbad, Calif.). […] TNF-α (0-250 μg/mL) was exposed for 6 h to differentiated myotubes.
(§3) Analysis of mRNA expression using quantitative polymerase chain reaction: Total RNA was extracted from cells or tissue using the TRIzol reagent (Life Technologies) following the manufacturer's instructions. The quality and quantity of the extracted RNA were determined on a NanoDrop spectrophotometer (Thermo Scientific). First-strand complementary DNA (cDNA) synthesis was performed using a commercially available High Capacity RNA-To-cDNA kit (Life Technologies) in a final reaction volume of 20 μL. Amplification of cDNA was performed on a 7900HT Real Time polymerase chain reaction (PCR) system (Applied Biosystems). PCR conditions were 2 min at 50° C., 10 min at 95° C., 40 cycles of 95° C. for 15 s, and then 60° C. for 60 s. Glyceraldehyde-3-phosphate dehydrogenase (GAPDH) was used as a housekeeping gene to normalize threshold cycle (CT) values.
(§4) Levels of GSH in plasma, tissues, and cultured cells were determined using HPLC. This assay determines total GSH status. Cell viability was determined using the Alamar Blue method (Alamar Biosciences, Sacramento, Calif.). Oxidative stress was assessed by the quantification of protein carbonyls and MDA using Protein Carbonyl Colorimetric and TBARS Assay Kits, respectively (Cayman Chemical, Ann Arbor, Mich.). Measurements of HbA1c, Complete Blood Count, glucose, and calcium were done at the clinical chemistry laboratories of LSUHSC-Shreveport. Due to limited amount of blood collected from each mouse, we borrowed diluents from the clinical laboratory and diluted the blood before taking it to the clinical laboratory, which reduced the amount of blood required for clinical tests. All chemicals were purchased from Sigma Chemical Co. (St. Louis, Mo.) unless otherwise mentioned.

A further experiment deals with FL83B mouse hepatocytes. Briefly: LC and cholecalciferol treatment of hepatocytes (GCLC-KD, VDR-KD). The format is cell-based. The method, then:
as §1, §2, §3, §4

Experiment [1] has as its system mice maintained on a VD-deficient HFD. The experiment in a line: Supplementation of mice on VD-deficient HFD: blood biomarkers. The settings on record: VD 67 IU/kg BW, vs OO (vehicle) control. Format: in vivo, mouse. The method, then: Effect of supplementation with VD along with LC on plasma levels of GSH, 25(OH)VD, and IR, and on GSH and VD regulatory genes in liver and on GSH and glucose metabolism genes in muscle: Beginning at 5 weeks of age, male C57BL/6J mice were fed and maintained on a VD-deficient HFD and water ad libitum for 16 weeks. Mice were gavaged daily for the last 8 weeks with saline, olive oil (OO), LC (5 mg/kg BW), VD (67 IU/kg BW), or LC+VD to investigate whether co-supplementation with GSH precursor has a better effect on blood levels of 25(OH)VD compared with levels achieved using VD alone. VD was dissolved in OO and one group of mice was also gavaged with OO (vehicle) alone.
Animal studies. Male C57BL/6J mice (5 weeks old, 20-24 g) were purchased from The Jackson Laboratory and acclimatized in the institutional animal house for 1 week. Mice were divided into various groups by computer-generated randomization and then housed and labeled in individual cages. They were fasted overnight and then weighed. Blood glucose was assessed by tail prick using an Accu-Chek glucometer (Boehringer Mannheim Corp., Indianapolis, Ind.). BW and blood glucose were monitored weekly. Control animals were fed a normal diet (lower in fat), while animals in the HFD group were fed HFD for 16 weeks. For studies with VD-deficient animals, the mice were maintained on a VD-deficient HFD for 16 weeks.
In addition, two groups of mice maintained on the VD-deficient HFD were also simultaneously supplemented by oral gavage with either water or the same dose of the vehicle used for dissolving cholecalciferol (OO) (FIG. 5). The animals were maintained under standard housing conditions at 22° C. 2° C. with 12/12-h light/dark cycles. Normal diet, HFD, and VD-deficient HFD were purchased from The Jackson Laboratory. The amount of food intake was monitored at 12 and 16 weeks into the treatment period to assess consumption. At the end of 16 weeks, the animals were fasted overnight and then euthanized for analysis by exposure to isoflurane (Webster Veterinary Supply, Inc., Devens, Mass.). Blood was collected via heart puncture with a 19^1/2-gauge needle into heparinized Vacutainer tubes. Plasma was isolated after centrifuging the blood in a 4° C. centrifuge at 3000 rpm for 10 min. The livers were perfused with cold saline to free them of residual blood. Liver and gastrocnemius muscle were collected immediately, weighed, quickly diced, and frozen in liquid nitrogen at −80° C.
Dose justification for LC and vitamin D: While lc can be taken as a supplement, it is also formed in the body from methionine. An adult ingests about 500 mg LC from dietary sources, assuming that an average protein intake is 90 g/day and that LC is about 0.6% of total protein. Similarly, taking into account daily dietary intake and diet composition, mice consume 3-5 mg LC/kg BW. The LC/methionine content of protein varies with the source of the protein. The LC dose used in our studies, 5 mg/kg BW, is theoretically a supplementation onefold to twofold that of the LC ordinarily consumed by the mice, which could be considered both modest and safe. […]
25(OH)VD, 1,25(OH)2VD, VDBP, GSH, TNF-α, PTH, insulin, glucose, protein carbonyl, and MDA assays: Plasma levels of 25(OH) vitamin D were determined using an ELISA kit (Calbiotech, Spring Valley, Calif.) and 1,25(OH)2 vitamin D using another ELISA kit (My BioSource, San Diego, Calif.). Plasma VDBP quantification was carried out using a kit purchased from ALPCO Diagnostics (Salem, N.H.). […]

The mark [2] stands for this setting: LC alone, compared with control VDR-KD cells.
The mark [3] stands for this setting: oral gavage 8 weeks, LC 5 mg/kg BW.

As for `C=C1/C(=C\C=C2/CCC[C@]3(C)[C@@H]([C@H](C)CCCC(C)(C)O)CC[C@@H]23)C[C@@H](O)C[C@@H]1O` [1,25(OH)2VD, 1alpha,25-dihydroxyvitamin D3], the “upregulation of NRF2 and GLUT-4” value with C2C12 myotubes (PGC-1α KD myotubes) is listed as “absent”.

In the case of `N[C@@H](CS)C(=O)O` [LC, l-cysteine], in the experiment with C2C12 myotubes (LC 300 μM, 6 h), the GSH levels result was “increases”. Also, the TNF-α levels result with C2C12 myotubes (LC 300 μM, 6 h, GCLC-normal and GCLC-KD myotubes) was “decrease”. Further, in the experiment on FL83B mouse hepatocytes (setting [2]), the CYP27A1 gene upregulation result is on record as “not” and the VDBP gene expression result is “upregulation”. Further, in the experiment with FL83B mouse hepatocytes (LC, GSH-normal and GSH-deficient hepatocytes), the “oxidation of both proteins and lipids” value is on record as “reduced”.

With `C=C1CC[C@H](O)C/C1=C/C=C1\CCC[C@]2(C)[C@@H]([C@H](C)CCCC(C)C)CC[C@@H]12` [VD, cholecalciferol], in experiment [1] (setting [3]), the “IR (HOMA-IR) in blood” value is listed as “did not show effect”, the “blood HbA1c” value is “did not show effect” and the “blood level of TNF-α” value is on record as “did not show effect”. For the same compound, the “blood level of VDBP” value in experiment [1] (oral gavage 8 weeks) is recorded as “did not show effect”. Also, the “blood level of GSH” value in experiment [1] (oral gavage last 8 weeks of 16 weeks VD-deficient HFD, LC 5 mg/kg BW) is on record as “did not show effect”. Besides, in the experiment on FL83B mouse hepatocytes (cholecalciferol 10 nM, 22 h), the “effect on VD regulatory genes (mRNA)” value is on record as “stimulatory effect”.

In the case of TNF-α, the VDR/PGC-1α/GLUT-4 gene expression entry in the experiment on C2C12 myotubes (exogenous TNF-α, 6 h) is “downregulates”.
